Where “and” joins values, the source holds several entries; their conditions need not be identical. Identical values can stand only once. Calls of active or inactive are those of the source. The rule behind the calls is not given here.
Tests used:
Rattus norvegicus [1] = assay: Anticonvulsant activity in rats using MES (maximal electroshock) after subcutaneous administration; assay type: functional; settings: sc
Rattus norvegicus [2] = assay: Anticonvulsant activity in rats, using MES(maximal electroshock), after subcutaneous administration.; assay type: functional; settings: sc
Rattus norvegicus [3] = assay: Anticonvulsant activity in rats using MES (maximal electroshock) after subcutaneous administration; IA-Inactive up to dose of 50 mg/kg; assay type: functional, organism-based; parameters: dose 50 mg/kg

Row | SMILES | ED50 (Rattus norvegicus [1]) | ED50 (Rattus norvegicus [2]) | ED50 (Rattus norvegicus [3])
1 | O=C1NC(=O)C(c2ccccc2)(c2ccccc2)N1 [PHENYTOIN] | 8 mg/kg | 30 µmol/kg | 
2 | CCN(CC)CCOCCNCC1(c2ccccc2)CCCCC1 |  |  | inactive
3 | CCN(CC)CCOCCNC(=O)C1(c2ccccc2)CCCC1 |  |  | inactive
4 | CCN(CC)CCOCCNCC1(c2ccccc2)CCCC1 |  |  | inactive
5 | CCN(CC)CCOCCNC(=O)C1(c2ccccc2)CCCCC1 |  |  | inactive
6 | CCN(CC)CCOCCOC(=O)C1(c2ccccc2)CCCCC1 | 93 mg/kg and 173 µmol/kg |  | 
7 | CCN(CC)CCOCCOC(=O)C1(c2ccccc2)CCCC1 [CARBETAPENTANE] | 25 mg/kg and 48 µmol/kg |  | 
8 | CCN(CC)CCOCCOCC1(c2ccccc2)CCCCC1 | 37 mg/kg | 86 µmol/kg | 
9 | CCN(CC)CCOCCN(C)CC1(c2ccccc2)CCCC1 |  |  | inactive
10 | CCN(CC)CCOCCOCC1(c2ccccc2)CCCC1 | 7 mg/kg and 16 µmol/kg |  | 

Source: ChEMBL document CHEMBL1125783, “Novel 1-phenylcycloalkanecarboxylic acid derivatives as potential anticonvulsant agents” (1991)
